# Legend:
# late watergrass = experiment: Test Example 1: herbicidal activity, application before weed generation under submerged conditions (Table 16, symbol A); format: in vivo, late watergrass (Echinochloa oryzicola); details: amount of applied herbicide 320 g/ha
# Procedure, shortened: (§1)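 Alluvial soil was flooded to 4 cm depth, weed seeds were sown mixed and 2.5-leaf rice seedlings were transplanted. On sowing day, the compound's emulsion, diluted in water to a set dose, was applied to the water surface. Plants grew at 25–30 °C and were scored 0–5 after three weeks.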
# Japanese bulrush = experiment: Test Example 1: herbicidal activity, application before weed generation under submerged conditions (Table 16, symbol B); format: in vivo, Japanese bulrush (Schoenoplectus juncoides); details: amount of applied herbicide 320 g/ha
# Procedure, shortened: as §1
# oval-leafed pondweed = experiment: Test Example 1: herbicidal activity, application before weed generation under submerged conditions (Table 16, symbol C); format: in vivo, oval-leafed pondweed (Monochoria vaginalis); details: amount of applied herbicide 320 g/ha
# Procedure, shortened: as §1
# barnyard grass [1] = experiment: Test Example 3: herbicidal effect by foliage application, Wagner pot (Table 18, symbol H); format: in vivo, barnyard grass (Echinochloa crus-galli); details: amount of applied herbicide 320 g/ha
# Procedure, shortened: (§2)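 Plants were sown in alluvial soil held under 0.1–0.5 cm standing water and grown 14 days in a greenhouse at 25–30 °C. An emulsifiable formulation, water-diluted to the set dose, was then sprayed onto the foliage, and effects were scored three weeks later using previously defined criteria.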
# Chinese sprangletop = experiment: Test Example 3: herbicidal effect by foliage application, Wagner pot (Table 18, symbol D); format: in vivo, chinese sprangletop (Leptochloa chinensis); details: amount of applied herbicide 320 g/ha
# Procedure, shortened: as §2
# rice flat sedge = experiment: Test Example 3: herbicidal effect by foliage application, Wagner pot (Table 18, symbol E); format: in vivo, rice flat sedge (Cyperus iria); details: amount of applied herbicide 320 g/ha
# Procedure, shortened: as §2
# southern crabgrass [2] = experiment: Test Example 4: herbicidal effect by soil treatment (Table 19, symbol F); format: in vivo, southern crabgrass (Digitaria ciliaris); details: amount of applied herbicide 320 g/ha
# Procedure, shortened: (§3)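 Step 1: sow seeds in sterilized diluvial soil, cover ~1.5 cm. Step 2: spray diluted emulsion onto soil surface at predetermined rate. Step 3: greenhouse, 25–30° C, three weeks. Step 4: grade effect on each plant by earlier criteria.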
# green foxtail [3] = experiment: Test Example 4: herbicidal effect by soil treatment (Table 19, symbol G); format: in vivo, green foxtail (Setaria viridis); details: amount of applied herbicide 320 g/ha
# Procedure, shortened: as §3
# barnyard grass [4] = experiment: Test Example 4: herbicidal effect by soil treatment (Table 19, symbol H); format: in vivo, barnyard grass (Echinochloa crus-galli); details: amount of applied herbicide 320 g/ha
# Procedure, shortened: as §3
# wild oat [5] = experiment: Test Example 4: herbicidal effect by soil treatment (Table 19, symbol I); format: in vivo, wild oat (Avena fatua); details: amount of applied herbicide 320 g/ha
# Procedure, shortened: as §3
# blackgrass [6] = experiment: Test Example 4: herbicidal effect by soil treatment (Table 19, symbol J); format: in vivo, blackgrass (Alopecurus myosuroides); details: amount of applied herbicide 320 g/ha
# Procedure, shortened: as §3
# Italian ryegrass [7] = experiment: Test Example 4: herbicidal effect by soil treatment (Table 19, symbol K); format: in vivo, Italian ryegrass (Lolium multiflorum); details: amount of applied herbicide 320 g/ha
# Procedure, shortened: as §3
# windgrass [8] = experiment: Test Example 4: herbicidal effect by soil treatment (Table 19, symbol L); format: in vivo, windgrass (Apera spica-venti); details: amount of applied herbicide 320 g/ha
# Procedure, shortened: as §3
# velvetleaf [9] = experiment: Test Example 4: herbicidal effect by soil treatment (Table 19, symbol M); format: in vivo, velvetleaf (Abutilon theophrasti); details: amount of applied herbicide 320 g/ha
# Procedure, shortened: as §3
# redroot pigweed = experiment: Test Example 4: herbicidal effect by soil treatment (Table 19, symbol N); format: in vivo, redroot pigweed (Amaranthus retroflexus); details: amount of applied herbicide 320 g/ha
# Procedure, shortened: as §3
# lambsquarters [10] = experiment: Test Example 4: herbicidal effect by soil treatment (Table 19, symbol O); format: in vivo, lambsquarters (Chenopodium album); details: amount of applied herbicide 320 g/ha
# Procedure, shortened: as §3
# chickweed = experiment: Test Example 4: herbicidal effect by soil treatment (Table 19, symbol P); format: in vivo, common chickweed (Stellaria media); details: amount of applied herbicide 320 g/ha
# Procedure, shortened: as §3
# persian speedwell [11] = experiment: Test Example 4: herbicidal effect by soil treatment (Table 19, symbol R); format: in vivo, Persian speedwell (Veronica persica); details: amount of applied herbicide 320 g/ha
# Procedure, shortened: as §3
# southern crabgrass [12] = experiment: Test Example 5: herbicidal effect by foliage application, plastic box (Table 20, symbol F); format: in vivo, southern crabgrass (Digitaria ciliaris); details: foliage application, 320 g/ha, three weeks after application
# Procedure, shortened: (§4)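 Foliar spray test: emulsion formulation diluted in water to a set application rate, sprayed onto 14-day-old plants raised in diluvial soil at 25° C to 30° C under glass. Both herbicidal effect and crop effect rated visually three weeks later.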
# green foxtail [13] = experiment: Test Example 5: herbicidal effect by foliage application, plastic box (Table 20, symbol G); format: in vivo, green foxtail (Setaria viridis); details: foliage application, 320 g/ha, three weeks after application
# Procedure, shortened: as §4
# barnyard grass [14] = experiment: Test Example 5: herbicidal effect by foliage application, plastic box (Table 20, symbol H); format: in vivo, barnyard grass (Echinochloa crus-galli); details: foliage application, 320 g/ha, three weeks after application
# Procedure, shortened: as §4
# wild oat [15] = experiment: Test Example 5: herbicidal effect by foliage application, plastic box (Table 20, symbol I); format: in vivo, wild oat (Avena fatua); details: foliage application, 320 g/ha, three weeks after application
# Procedure, shortened: as §4
# blackgrass [16] = experiment: Test Example 5: herbicidal effect by foliage application, plastic box (Table 20, symbol J); format: in vivo, blackgrass (Alopecurus myosuroides); details: foliage application, 320 g/ha, three weeks after application
# Procedure, shortened: as §4
# Italian ryegrass [17] = experiment: Test Example 5: herbicidal effect by foliage application, plastic box (Table 20, symbol K); format: in vivo, Italian ryegrass (Lolium multiflorum); details: foliage application, 320 g/ha, three weeks after application
# Procedure, shortened: as §4
# windgrass [18] = experiment: Test Example 5: herbicidal effect by foliage application, plastic box (Table 20, symbol L); format: in vivo, windgrass (Apera spica-venti); details: foliage application, 320 g/ha, three weeks after application
# Procedure, shortened: as §4
# velvetleaf [19] = experiment: Test Example 5: herbicidal effect by foliage application, plastic box (Table 20, symbol M); format: in vivo, velvetleaf (Abutilon theophrasti); details: foliage application, 320 g/ha, three weeks after application
# Procedure, shortened: as §4
# lambsquarters [20] = experiment: Test Example 5: herbicidal effect by foliage application, plastic box (Table 20, symbol O); format: in vivo, lambsquarters (Chenopodium album); details: foliage application, 320 g/ha, three weeks after application
# Procedure, shortened: as §4
# persian speedwell [21] = experiment: Test Example 5: herbicidal effect by foliage application, plastic box (Table 20, symbol R); format: in vivo, Persian speedwell (Veronica persica); details: foliage application, 320 g/ha, three weeks after application
# Procedure, shortened: as §4
structure (smiles),measurement,setting,value
COc1ccccc1-c1oc2ccc(F)cc2c1-c1c(O)c(C)nn(C)c1=O [9-019],"Herbicidal effect, A: late watergrass",late watergrass,3 (Herbicidal rate of 40% or more and less than 70%)
same,"Herbicidal effect, B: Japanese bulrush",Japanese bulrush,0 (Herbicidal rate of 5% or less (almost no effect))
same,"Herbicidal effect, C: oval-leafed pondweed",oval-leafed pondweed,0 (Herbicidal rate of 5% or less (almost no effect))
same,"Herbicidal effect on H (barnyard grass), foliage application",barnyard grass [1],4 (Herbicidal rate of 70% or more and less than 90%)
same,"Herbicidal effect on D (Chinese sprangletop), foliage application",Chinese sprangletop,4 (Herbicidal rate of 70% or more and less than 90%)
same,"Herbicidal effect on E (rice flat sedge), foliage application",rice flat sedge,4 (Herbicidal rate of 70% or more and less than 90%)
same,"F: southern crabgrass, herbicidal effect grade",southern crabgrass [2],0 (Herbicidal rate of 5% or less (almost no effect))
same,"G: green foxtail, herbicidal effect grade",green foxtail [3],0 (Herbicidal rate of 5% or less (almost no effect))
same,"H: barnyard grass, herbicidal effect grade",barnyard grass [4],0 (Herbicidal rate of 5% or less (almost no effect))
same,"I: wild oat, herbicidal effect grade",wild oat [5],0 (Herbicidal rate of 5% or less (almost no effect))
same,"J: blackgrass, herbicidal effect grade",blackgrass [6],0 (Herbicidal rate of 5% or less (almost no effect))
same,"K: Italian ryegrass, herbicidal effect grade",Italian ryegrass [7],1 (Herbicidal rate of 5% or more and less than 20%)
same,"L: windgrass, herbicidal effect grade",windgrass [8],0 (Herbicidal rate of 5% or less (almost no effect))
same,"M: velvetleaf, herbicidal effect grade",velvetleaf [9],0 (Herbicidal rate of 5% or less (almost no effect))
same,"N: redroot pigweed, herbicidal effect grade",redroot pigweed,2 (Herbicidal rate of 20% or more and less than 40%)
same,"O: lambsquarters, herbicidal effect grade",lambsquarters [10],1 (Herbicidal rate of 5% or more and less than 20%)
same,"P: chickweed, herbicidal effect grade",chickweed,0 (Herbicidal rate of 5% or less (almost no effect))
same,"R: persian speedwell, herbicidal effect grade",persian speedwell [11],0 (Herbicidal rate of 5% or less (almost no effect))
same,herbicidal effect on southern crabgrass (F),southern crabgrass [12],0 (Herbicidal rate of 5% or less (almost no effect))
same,herbicidal effect on green foxtail (G),green foxtail [13],0 (Herbicidal rate of 5% or less (almost no effect))
same,herbicidal effect on barnyard grass (H),barnyard grass [14],0 (Herbicidal rate of 5% or less (almost no effect))
same,herbicidal effect on wild oat (I),wild oat [15],0 (Herbicidal rate of 5% or less (almost no effect))
same,herbicidal effect on blackgrass (J),blackgrass [16],0 (Herbicidal rate of 5% or less (almost no effect))
same,herbicidal effect on Italian ryegrass (K),Italian ryegrass [17],0 (Herbicidal rate of 5% or less (almost no effect))
same,herbicidal effect on windgrass (L),windgrass [18],0 (Herbicidal rate of 5% or less (almost no effect))
same,herbicidal effect on velvetleaf (M),velvetleaf [19],0 (Herbicidal rate of 5% or less (almost no effect))
same,herbicidal effect on lambsquarters (O),lambsquarters [20],0 (Herbicidal rate of 5% or less (almost no effect))
same,herbicidal effect on persian speedwell (R),persian speedwell [21],4 (Herbicidal rate of 70% or more and less than 90%)
